# Where two headings read alike, the source gives them in different places.
# Key:
# [1] = molecular target: T1, Recombinant STAT6 protein (STAT6 (W123-T658)) (Homo sapiens, UniProt P42226); assay: STAT6 Fluorescence Polarization (FP) Assay; format: binding; conditions: STAT6 (W123-T658) 250 nM, 45-minute incubation, read-out: STAT6 (FP assay IC50 class)
# T1 construct: Recombinant STAT6 protein (STAT6 (W123-T658))
# T1 sequence (P42226 123-658): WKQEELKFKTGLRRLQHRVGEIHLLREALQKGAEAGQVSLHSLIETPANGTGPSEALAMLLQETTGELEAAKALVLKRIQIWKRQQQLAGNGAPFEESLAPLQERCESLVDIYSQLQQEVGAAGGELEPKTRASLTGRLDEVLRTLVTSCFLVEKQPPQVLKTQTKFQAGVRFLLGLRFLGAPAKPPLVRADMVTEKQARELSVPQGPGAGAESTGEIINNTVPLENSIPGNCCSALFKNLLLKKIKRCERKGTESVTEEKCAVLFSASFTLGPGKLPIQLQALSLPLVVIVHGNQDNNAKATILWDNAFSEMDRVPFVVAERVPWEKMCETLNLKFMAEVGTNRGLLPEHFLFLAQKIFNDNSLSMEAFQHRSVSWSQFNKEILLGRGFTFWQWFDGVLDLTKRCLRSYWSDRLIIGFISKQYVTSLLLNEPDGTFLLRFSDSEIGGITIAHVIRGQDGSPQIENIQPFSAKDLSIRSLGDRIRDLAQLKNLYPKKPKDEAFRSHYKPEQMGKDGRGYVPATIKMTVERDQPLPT
# Procedure, shortened: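 Competitive FP binding: recombinant STAT6 (W123-T658) at 250 nM, labeled phosphotyrosine peptide at 2 nM, compounds at 1% DMSO, 45 min at RT before reading. IC50 values were obtained from nonlinear regression of mP versus log concentration.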
# [2] = molecular target: T2, Recombinant STAT3 protein (STAT3 (G127-I722)) (Homo sapiens, UniProt P40763); assay: STAT3 Fluorescence Polarization (FP) Assay; format: binding; conditions: STAT3 (G127-I722) 25 nM, probe 5-FAM-GpYLPQTV-NH2 2 nM, 45-minute incubation; read-out: STAT3 (FP assay IC50 class)
# T2 construct: Recombinant STAT3 protein (STAT3 (G127-I722))
# Procedure, shortened: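 Displacement of a 2 nM 5-FAM-labelled pY peptide (GpYLPQTV) from 25 nM recombinant STAT3 (G127-I722) was monitored by fluorescence polarization. Incubation lasted 45 min at room temperature in pH 7.4 HEPES buffer containing 1% DMSO.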
# T2 sequence (P40763 127-722): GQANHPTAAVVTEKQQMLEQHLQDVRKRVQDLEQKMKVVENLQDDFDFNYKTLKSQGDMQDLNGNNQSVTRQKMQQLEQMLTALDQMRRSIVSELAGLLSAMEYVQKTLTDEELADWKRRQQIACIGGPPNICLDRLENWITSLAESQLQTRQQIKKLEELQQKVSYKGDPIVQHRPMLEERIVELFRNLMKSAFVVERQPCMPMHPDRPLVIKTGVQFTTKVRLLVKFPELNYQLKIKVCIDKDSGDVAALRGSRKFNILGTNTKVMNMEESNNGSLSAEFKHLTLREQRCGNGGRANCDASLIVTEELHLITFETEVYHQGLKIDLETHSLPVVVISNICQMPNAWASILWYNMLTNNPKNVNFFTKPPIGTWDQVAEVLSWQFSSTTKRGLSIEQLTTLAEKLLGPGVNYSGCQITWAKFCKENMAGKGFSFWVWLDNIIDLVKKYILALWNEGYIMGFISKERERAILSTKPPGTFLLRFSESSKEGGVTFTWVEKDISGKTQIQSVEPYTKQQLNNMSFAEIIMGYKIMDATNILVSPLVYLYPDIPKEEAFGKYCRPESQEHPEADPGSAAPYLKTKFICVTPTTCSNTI
Compound,IC50 ([1]; probe 5-FAM-Ap[…]-NH2 2 nM) [µM],IC50 [2] [µM],IC50 ([1]; probe 5-FAM-ApYKPFQDLI-NH2 2 nM) [µM]
"O=C(N[C@H]1CCCC[C@H]2CC[C@@H](C(=O)N3CC(Oc4cccnc4)C3)N2C1=O)c1cc2cc(C(F)(F)P(=O)(O)O)ccc2s1 [Compound 724, (difluoro(2-(((3S,6S,10aS)-5-oxo-3-(3-(pyridin-3-yloxy)azetidine-1-carbonyl)decahydropyrrolo[1,2-a]azocin-6-yl)carbamoyl)benzo [b]thiophen-5-yl)methyl) phosphonic acid]",0.3 to 3,< 0.1,–
"O=C(N[C@H]1CCCC[C@H]2CC[C@@H](C(=O)N[C@H](CO)Cc3cccnc3)N2C1=O)c1cc2cc(C(F)(F)P(=O)(O)O)ccc2s1 [Compound 725, (difluoro(2-(((3S,6S,10aS)-3-(((S)-1-hydroxy-3-(pyridin-3-yl)propan-2-yl)carbamoyl)-5-oxodecahydropyrrolo [1,2-a]azocin-6-yl)carbamoyl)benzo [b]thiophen-5-yl)methyl) phosphonic acid]",3 to 30,0.1 to 1,–
"O=C(N[C@H]1CCCC[C@H]2CC[C@@H](C(=O)NCc3ccn[nH]3)N2C1=O)c1cc2cc(C(F)(F)P(=O)(O)O)ccc2s1 [Compound 726, ((2-(((3S,6S,10aS)-3-(((212-pyrazol-3-yl)methyl)carbamoyl)-5-oxodecahydropyrrolo [1,2-a]azocin-6-yl)carbamoyl)benzo [b]thiophen-5-yl)difluoromethyl) phosphonic acid]",3 to 30,0.1 to 1,–
"O=C(N[C@H]1CCCC[C@H]2CC[C@@H](C(=O)N[C@@H](CO)Cc3cccnc3)N2C1=O)c1cc2cc(C(F)(F)P(=O)(O)O)ccc2s1 [Compound 727, (difluoro(2-(((3S,6S,10aS)-3-(((R)-1-hydroxy-3-(pyridin-3-yl)propan-2-yl)carbamoyl)-5-oxodecahydropyrrolo [1,2-a]azocin-6-yl)carbamoyl)benzo [b]thiophen-5-yl)methyl) phosphonic acid]",3 to 30,1 to 10,–
"O=C(N[C@H]1CC[C@H]2CC[C@@H](C(=O)N3CC(c4ccccn4)C3)N2C1=O)c1cc2cc(C(F)(F)P(=O)(O)O)ccc2s1 [Compound 728, (difluoro(2-(((3S,6S,8aS)-5-oxo-3-(3-(pyridin-2-yl)azetidine-1-carbonyl)octahydroindolizin-6-yl)carbamoyl)benzo [b]thiophen-5-yl)methyl) phosphonic acid]",3 to 30,0.1 to 1,–
"O=C(N[C@H]1C/C=C\C[C@@H]2[C@H](O)C[C@@H](C(=O)N3CC(C(=O)N4CCOCC4)C3)N2C1=O)c1cc2cc(C(F)(F)P(=O)(O)O)ccc2s1 [Compound 730, (difluoro(2-(((1R,3S,6S,10aR,Z)-1-hydroxy-3-(3-(morpholine-4-carbonyl)azetidine-1-carbonyl)-5-oxo-1,2,3,5,6,7,10,10a-octahydropyrrolo[1,2-a]azocin-6-yl)carbamoyl)benzo [b]thiophen-5-yl)methyl) phosphonic acid]",3 to 30,1 to 10,–
"O=C(N[C@H]1CC[C@H]2CC[C@@H](C(=O)N3CC(C(=O)N4CCOCC4)C3)N2C1=O)c1cc2cc(C(F)(F)P(=O)(O)O)ccc2s1 [Compound 731, (difluoro(2-(((3S,6S,8aS)-3-(3-(morpholine-4-carbonyl)azetidine-1-carbonyl)-5-oxooctahydro-indolizin-6-yl)carbamoyl)benzo [b]thiophen-5-yl)methyl) phosphonic acid]",3 to 30,1 to 10,–
"C[C@@H]1[C@@H](c2cccnc2)CN1C(=O)[C@@H]1CC[C@@H]2CCC[C@H](NC(=O)c3cc4cc(C(F)P(=O)(O)O)ccc4s3)C(=O)N21 (stereo partly drawn) [Compound 737, (fluoro(2-(((3S,6S,9aS)-3-((2R,3S)-2-methyl-3-(pyridin-3-yl)azetidine-1-carbonyl)-5-oxooctahydro-1H-pyrrolo[1,2-a]azepin-6-yl)carbamoyl)benzo [b]thiophen-5-yl)methyl) phosphonic acid Or (fluoro(2-(((3S,6S,9aS)-3-((2S,3R)-2-methyl-3-(pyridin-3-yl)azetidine-1-carbonyl)-5-oxooctahydro-1H-pyrrolo[1,2-a]azepin-6-yl)carbamoyl)benzo [b]thiophen-5-yl)methyl) phosphonic acid]",–,< 0.1,3 to 30

# Now from value to compound, other results behind:
IC50 ([1]; probe 5-FAM-Ap[…]-NH2 2 nM) [µM],IC50 [2] [µM],Compound,IC50 ([1]; probe 5-FAM-ApYKPFQDLI-NH2 2 nM) [µM]
3 to 30,1 to 10,"O=C(N[C@H]1CC[C@H]2CC[C@@H](C(=O)N3CC(n4ccnc4)C3)N2C1=O)c1cc2cc(C(F)(F)P(=O)(O)O)ccc2s1 [Compound 732, ((2-(((3S,6S,8aS)-3-(3-(1H-imidazol-1-yl)azetidine-1-carbonyl)-5-oxooctahydro-indolizin-6-yl)carbamoyl)benzo [b]thiophen-5-yl)difluoromethyl) phosphonic acid]",–
0.3 to 3,0.1 to 1,"Cn1cc(C2CN(C(=O)[C@@H]3CC[C@@H]4CCC[C@H](NC(=O)c5cc6cc(C(F)P(=O)(O)O)ccc6s5)C(=O)N43)C2)c(C#N)n1 (stereo partly drawn) [Compound 734, ((2-(((3S,6S,9aS)-3-(3-(3-cyano-1-methyl-1H-pyrazol-4-yl)azetidine-1-carbonyl)-5-oxooctahydro-1H-pyrrolo[1,2-a]azepin-6-yl)carbamoyl)benzo [b]thiophen-5-yl)fluoromethyl) phosphonic acid]",–
3 to 30,< 0.1,"C[C@@H]1C[C@H]2CC[C@@H](C(=O)N3CC(c4cnccc4N(C)C)C3)N2C(=O)[C@@H](NC(=O)c2cc3cc([C@H](F)P(=O)(O)O)ccc3s2)C1 [Compound 735, ((R)-(2-(((3S,6S,8S,9aR)-3-(3-(4-(dimethylamino)pyridin-3-yl)azetidine-1-carbonyl)-8-methyl-5-oxooctahydro-1H-pyrrolo[1,2-a]azepin-6-yl)carbamoyl)benzo [b]thiophen-5-yl)fluoromethyl) phosphonic acid]",–
3 to 30,< 0.1,"C[C@H]1C[C@H]2CC[C@@H](C(=O)N3CC(c4cnccc4N(C)C)C3)N2C(=O)[C@@H](NC(=O)c2cc3cc([C@H](F)P(=O)(O)O)ccc3s2)C1 [Compound 736, ((R)-(2-(((3S,6S,8R,9aR)-3-(3-(4-(dimethylamino)pyridin-3-yl)azetidine-1-carbonyl)-8-methyl-5-oxooctahydro-1H-pyrrolo[1,2-a]azepin-6-yl)carbamoyl)benzo [b]thiophen-5-yl)fluoromethyl) phosphonic acid]",–
3 to 30,< 0.1,"CN(C)c1ncncc1C1CN(C(=O)[C@@H]2CC[C@@H]3CCC[C@H](NC(=O)c4cc5cc(C(F)P(=O)(O)O)ccc5s4)C(=O)N32)C1 (stereo partly drawn) [Compound 739, ((2-(((3S,6S,9aS)-3-(3-(4-(dimethylamino)pyrimidin-5-yl)azetidine-1-carbonyl)-5-oxooctahydro-1H-pyrrolo[1,2-a]azepin-6-yl)carbamoyl)benzo [b]thiophen-5-yl)fluoromethyl) phosphonic acid]",–
3 to 30,1 to 10,"Cn1ncc(C2CN(C(=O)[C@@H]3CC[C@@H]4CCC[C@H](NC(=O)c5cc6cc(C(F)P(=O)(O)O)ccc6s5)C(=O)N43)C2)c1C#N (stereo partly drawn) [Compound 743, ((2-(((3S,6S,9aS)-3-(3-(5-cyano-1-methyl-1H-pyrazol-4-yl)azetidine-1-carbonyl)-5-oxooctahydro-1H-pyrrolo[1,2-a]azepin-6-yl)carbamoyl)benzo [b]thiophen-5-yl)fluoromethyl) phosphonic acid]",–
3 to 30,< 0.1,"COc1ccncc1C1CN(C(=O)[C@@H]2CC[C@@H]3C[C@@H](C)C[C@H](NC(=O)c4cc5cc([C@H](F)P(=O)(O)O)ccc5s4)C(=O)N32)C1 [Compound 749, ((R)-fluoro(2-(((3S,6S,8S,9aR)-3-(3-(4-methoxypyridin-3-yl)azetidine-1-carbonyl)-8-methyl-5-oxooctahydro-1H-pyrrolo[1,2-a]azepin-6-yl)carbamoyl)benzo [b]thiophen-5-yl)methyl) phosphonic acid]",–
3 to 30,< 0.1,"O=C(N[C@H]1CCC[C@H]2CC[C@@H](C(=O)N3CC(c4cnccc4N4CCOCC4)C3)N2C1=O)c1cc2cc(CP(=O)(O)O)ccc2s1 [Compound 750, ((2-(((3S,6S,9aS)-3-(3-(4-morpholinopyridin-3-yl)azetidine-1-carbonyl)-5-oxooctahydro-1H-pyrrolo[1,2-a]azepin-6-yl)carbamoyl)benzo [b]thiophen-5-yl)methyl) phosphonic acid]",–
